Converted amounts (≈) assume the structure as drawn.
Experiments:
Solubility test = assay type: physicochemical; settings: artificial intestinal juice (phosphate buffer) with 1% DMSO, fassgf or other biorelevant, kinetic from dmso stock, artificial intestinal juice pH 6.8, 16 hours at 25° C.
Experimental: The solubility of each compound is determined under 1% DMSO addition conditions. A 10 mmol/L solution of the compound is prepared with DMSO, and 6 μL of the compound solution is added to 594 μL of an artificial intestinal juice (water and 118 mL of 0.2 mol/L NaOH reagent are added to 250 mL of 0.2 mol/L potassium dihydrogen phosphate reagent to reach 1000 mL) with a pH of 6.8. The mixture is left standing for 16 hours at 25° C., and the mixture is vacuum-filtered. The filtrate is two-fold diluted with methanol/water=1/1, and the compound concentration in the filtrate is measured with HPLC or LC/MS/MS by the absolute calibration method.

human TRPV4 [1] = target: T1, human TRPV4 (Homo sapiens (Human), UniProt Q9HBA0); assay: Test Example 3: measurement of TRPV4 inhibitory activity (Fluo-3, FDSS 3000, 4α-PDD); assay type: cell-based; settings: hTRPV4/CHO cells, calculated from IC50 and 4α-PDD EC50
T1 sequence (Q9HBA0 whole entry): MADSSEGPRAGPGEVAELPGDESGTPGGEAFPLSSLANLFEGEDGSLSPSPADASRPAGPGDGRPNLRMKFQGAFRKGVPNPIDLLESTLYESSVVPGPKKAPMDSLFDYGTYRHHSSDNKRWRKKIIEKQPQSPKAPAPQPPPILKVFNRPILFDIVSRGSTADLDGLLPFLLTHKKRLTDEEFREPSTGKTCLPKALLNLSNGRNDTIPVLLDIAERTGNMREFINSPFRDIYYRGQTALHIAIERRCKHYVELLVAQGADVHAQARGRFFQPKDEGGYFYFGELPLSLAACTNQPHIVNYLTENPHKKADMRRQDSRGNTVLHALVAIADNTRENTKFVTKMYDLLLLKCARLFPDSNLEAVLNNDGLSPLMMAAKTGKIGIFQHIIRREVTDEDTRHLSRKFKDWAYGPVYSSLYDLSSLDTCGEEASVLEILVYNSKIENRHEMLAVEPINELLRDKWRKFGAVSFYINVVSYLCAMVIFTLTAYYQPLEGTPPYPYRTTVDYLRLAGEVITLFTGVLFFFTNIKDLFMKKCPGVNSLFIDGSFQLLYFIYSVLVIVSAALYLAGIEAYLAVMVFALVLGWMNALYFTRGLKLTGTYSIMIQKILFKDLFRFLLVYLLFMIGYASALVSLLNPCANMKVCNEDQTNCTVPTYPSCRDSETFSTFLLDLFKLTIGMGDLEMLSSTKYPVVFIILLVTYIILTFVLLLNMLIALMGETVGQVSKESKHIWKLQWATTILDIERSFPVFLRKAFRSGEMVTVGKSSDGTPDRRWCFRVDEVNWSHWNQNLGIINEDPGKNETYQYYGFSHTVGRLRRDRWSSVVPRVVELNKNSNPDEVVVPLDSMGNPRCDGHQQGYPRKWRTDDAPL
Experimental: For each compound, TRPV4 inhibitory activity was measured using cells.
(1) The TRPV4 inhibitory activity was measured using CHO-K1 cells stably expressing human TRPV4 (hTRPV4/CHO cells).
(2) Frozen cells were thawed and subcultured with the medium (MEM-α, 10% FBS, […], 50 unit/mL penicillin, 50 μg/mL streptomycin, 1 mg/mL G418).
(3) The 96-well plates which hTRPV4/CHO cells were seeded at densities of 2×10^4 cells/well in the culture medium and cultured in a CO2 incubator in the presence of 5% CO2 at 37° C. for 24 h was used as assay plates.
(4) The assay plate was washed with assay buffer (Hanks, […], […], pH7.4).
(5) Fluo-3, fluorescent dye for Ca influx assay was added to each well, then the assay plate was incubated in a CO2 incubator in the presence of 5% CO2 at 37° C. for one hour (final conc.; 5 μmmol/L Fluo-3).
(6) The assay plate was washed with the assay buffer, and the buffer was remained at 30 μL/well. Then the assay plate was incubated for 10 min at 37° C.
(7) Diluted compound solution was dispensed to each well in the compound plate, and mixed with built-in Pipette and Mixer of the fluorescence analysis system FDSS 3000 (Hamamatsu Photonics).
(8) 50 μL of 4α-PDD solution (concluding 0.1% Pluronic F-127) was applied to each well of assay plate and mixed.
(9) The fluorescent intensity was measured by FDSS 3000 for 8 min from the point of time addition the compound solution, at Ex 480 nm, Em 540 nm wavelength.
TRPV4 inhibitory activity (Ki value) of a compound was evaluated according to the following procedure.
(10) In the presence of the compound, the difference between maximal and minimal of fluorescent intensity value for 8 min from just before addition of 4α-PDD solution was calculated, and it was referred as Max-Min value. Max-Min value of the Ruthenium Red at 10 μM was defined as 100% inhibitory activity, Max-Min value in the absence of the compound was defined as 0% inhibitory activity. The TRPV4 inhibitory activity of the compound was calculated by the following formula. (1−(Max-Min value of the compound−100% inhibitory activity)/(0% inhibitory activity−100% inhibitory activity))×100 (11) By the following formula, inhibitory activity was calculated at 10 points with three fold serial dilution, in the final concentration of the compound from 10 μmmol/L to 0.5 nmol/L. The IC50 value was calculated by dose-response curve. 100−[(fluorescent intensity in the presence of the compound−fluorescent intensity of back ground)/(total fluorescent intensity−fluorescent intensity of back ground)]×100 (12) In the presence of the compound, activity of 4α-PDD was measured at 9 points with three fold serial dilution from 20 μmol/L. Activity of 4α-PDD was calculated by the following formula. (Max-Min value of the each 4α-PDD concentration−0% activity)/(100% activity−0% activity))×100 (13) Effective activity was calculated in 4α-PDD the above. The EC50 value was calculated by dose-response curve. (14) The Ki value of a compound was calculated by the following formula. Ki (nmol/L)=IC50 value (nmol/L)/([A]/EC50 value (nmol/L)) [A]; Concentration of agonist (nmol/L)

human TRPV4 [2] = target: T1, human TRPV4; assay: Test Example 1: measurement of TRPV4 inhibitory activity (Fluo 4-AM, FLIPR TETRA, 4α-PDD 1 μmol/L); assay type: cell-based; settings: hTRPV4/CHO cells; for IC50: 4α-PDD 1 μmol/L; for Ki: calculated from IC50 and 4α-PDD EC50
How it was run: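 Calcium influx evoked by 4α-PDD (final 1 μmol/L) in hTRPV4/CHO-K1 cells loaded with Fluo-4 AM (final 3 μmol/L), pH 7.4 HEPES-Hanks with probenecid; compounds added 5 min earlier. Inhibition relative to 20 μM Ruthenium Red gave IC50 (logistic), converted to Ki via agonist EC50.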

[3] = Metabolism stability test; assay type: in vitro ADME; settings: human liver microsomes, 30 minutes
Experimental: Using a commercially available pooled human hepatic microsomes, a test compound was reacted for a constant time, a remaining rate was calculated by comparing a reacted sample and an unreacted sample, thereby, a degree of metabolism in liver was assessed.
A reaction was performed (oxidative reaction) at 37° C. for 0 minute or 30 minutes in the presence of 1 mmol/L NADPH in 0.2 mL of a buffer (50 mmol/L Tris-HCl pH 7.4, 150 mmol/L potassium chloride, 10 mmol/L magnesium chloride) containing 0.5 mg protein/mL of human liver microsomes. After the reaction, 50 μL of the reaction mixture was added to 100 μL of a methanol/acetonitrile=1/1 (v/v), mixed and centrifuged at 3000 rpm for 15 minutes. The test compound in the supernatant was quantified by LC/MS/MS, and a remaining amount of the test compound after the reaction was calculated, letting a compound amount at 0 minute reaction time to be 100%. Hydrolysis reaction was performed in the absence of NADPH and glucuronidation reaction was in the presence of 5 mM UDP-glucuronic acid in place of NADPH, followed by similar operations.

[4] = target: human ether-a-go-go related gene (hERG) channel (Homo sapiens (Human), UniProt Q12809); assay: hERG test (whole cell patch clamp, IKr); assay type: cell-based; settings: 1 μmol/L of test compound, HEK293 cells expressing hERG
Chain of human ether-a-go-go related gene (hERG) channel (Q12809 whole entry): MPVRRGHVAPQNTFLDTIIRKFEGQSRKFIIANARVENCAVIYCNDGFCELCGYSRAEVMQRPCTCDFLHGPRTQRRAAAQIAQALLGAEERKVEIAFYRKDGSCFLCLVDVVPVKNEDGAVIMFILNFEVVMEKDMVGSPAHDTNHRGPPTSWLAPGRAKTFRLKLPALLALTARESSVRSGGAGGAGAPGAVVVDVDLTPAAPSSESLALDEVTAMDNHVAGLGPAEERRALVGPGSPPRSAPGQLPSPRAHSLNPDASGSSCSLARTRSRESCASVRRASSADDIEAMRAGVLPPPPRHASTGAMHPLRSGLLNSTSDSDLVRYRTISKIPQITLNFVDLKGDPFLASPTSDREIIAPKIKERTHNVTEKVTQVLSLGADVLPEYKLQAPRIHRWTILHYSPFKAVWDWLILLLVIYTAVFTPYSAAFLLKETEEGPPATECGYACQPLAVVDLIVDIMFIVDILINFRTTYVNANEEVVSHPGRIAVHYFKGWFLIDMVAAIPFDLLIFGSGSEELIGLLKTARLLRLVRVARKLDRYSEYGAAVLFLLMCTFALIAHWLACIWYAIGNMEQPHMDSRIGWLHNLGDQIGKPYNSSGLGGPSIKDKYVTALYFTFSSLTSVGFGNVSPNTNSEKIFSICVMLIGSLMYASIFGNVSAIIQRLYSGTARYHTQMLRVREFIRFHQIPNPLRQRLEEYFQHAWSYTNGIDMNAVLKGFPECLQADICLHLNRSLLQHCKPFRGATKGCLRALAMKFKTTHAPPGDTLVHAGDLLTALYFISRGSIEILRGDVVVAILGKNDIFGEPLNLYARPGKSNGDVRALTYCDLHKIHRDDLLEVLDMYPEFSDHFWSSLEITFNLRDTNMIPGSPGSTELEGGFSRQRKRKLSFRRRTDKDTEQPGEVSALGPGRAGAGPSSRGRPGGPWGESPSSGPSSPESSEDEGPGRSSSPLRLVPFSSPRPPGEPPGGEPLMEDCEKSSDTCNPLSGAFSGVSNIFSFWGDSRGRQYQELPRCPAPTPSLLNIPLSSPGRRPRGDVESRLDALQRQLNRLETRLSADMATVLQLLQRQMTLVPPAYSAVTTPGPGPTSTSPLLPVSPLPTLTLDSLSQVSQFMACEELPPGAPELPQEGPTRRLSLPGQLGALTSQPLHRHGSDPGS
Excerpt: For the purpose of assessing risk of an electrocardiogram QT interval prolongation, effects on delayed rectifier K^+ current (IKr), which plays an important role in the ventricular repolarization process, was studied using HEK293 cells expressing human ether-a-go-go related gene (hERG) channel.
After a cell was retained at a membrane potential of −80 mV by whole cell patch clamp method using an automated patch clamp system (PatchXpress 7000A, Axon Instruments Inc.), IKr induced by depolarization pulse stimulation at +40 mV for 2 seconds and, further, repolarization pulse stimulation at −50 mV for 2 seconds was recorded. […] From the recording IKr, an absolute value of the tail peak current was measured based on the current value at the resting membrane potential using an analysis software (DataXpress ver. 1, Molecular Devices Corporation). Further, the % inhibition relative to the tail peak current before application of the test substance was calculated, and compared with the vehicle-applied group (0.1% dimethyl sulfoxide solution) to assess influence of the test substance on IKr.

[5] = compound concentration 2 μmol/L
[6] = compound concentration 0.5 μmol/L

solubility at 16 h (Solubility test)	Ki (human TRPV4 [1])	IC50 (human TRPV4 [2])	remaining rate (metabolism stability) [3, 5]	remaining rate (metabolism stability) [3, 6]	Ki (human TRPV4 [2])	Structure (SMILES)	hERG % inhibition [4]
19.3 µM (≈ 8.71 µg/mL)	0.197 µM	0.36 µM	–	–	–	Cc1c(C(=O)Nc2cccc(C(F)(F)F)c2)cc(C(C)(C)C)n1CCCN1CCOCC1 [Compound I-002]	–
> 50 µM	3.07 µM	–	71.4%	–	–	Cc1c(C(=O)Nc2cnccn2)cc(-c2ccccc2)n1CCCN1CCOCC1 [Compound I-003]	–
39.2 µM (≈ 17.2 µg/mL)	1.57 µM	–	–	–	–	Cc1c(C(=O)Nc2ccc(Cl)cn2)cc(-c2ccccc2)n1CCCN1CCOCC1 [Compound I-004]	–
> 50 µM	1.7 µM	–	–	–	–	CCOC(=O)Cc1csc(NC(=O)c2cc(-c3ccccc3)n(CCCN3CCOCC3)c2C)n1 [Compound I-005]	–
> 50 µM	0.191 µM	0.13 µM	–	–	–	Cc1c(C(=O)Nc2cccc(C(F)(F)F)c2)cc(-c2ccccc2)n1CCCN(CCO)CCO [Compound I-016]	–
> 50 µM	1.5 µM	–	89.1%	–	–	Cc1c(C(=O)Nc2nccs2)cc(-c2ccccc2)n1CCCN1CCOCC1 [Compound I-019]	–
> 50 µM	0.379 µM	0.61 µM	–	–	–	Cc1c(C(=O)Nc2cccc(C(F)(F)F)c2)cc(-c2cccnc2)n1CCCN1CCOCC1 [Compound I-021]	–
–	0.605 µM	–	–	96.9%	–	Cc1c(C(=O)Nc2cccc(C(F)(F)F)c2)cc(-c2ccccc2)n1CCCN [Compound I-023]	–
26.8 µM (≈ 12.6 µg/mL)	0.655 µM	–	–	–	–	Cc1c(C(=O)Nc2cccc(C(F)(F)F)c2)cc(-c2ccccc2)n1CCCN(C)CC1CC1 [Compound I-033]	–
> 50 µM	0.771 µM	–	–	82.2%	–	Cc1c(C(=O)Nc2cccc(C(F)(F)F)c2)cc(-c2ccccc2)n1CCCN(C)CC[C@H](O)[C@H](O)CO [Compound I-035]	–
> 50 µM	0.352 µM	–	–	–	–	Cc1c(C(=O)Nc2cccc(C(F)(F)F)c2)cc(-c2ccccc2)n1CCCN(C)CC(C)(C)CN(C)C [Compound I-038]	–
> 50 µM	0.282 µM	–	–	–	–	Cc1c(C(=O)Nc2cccc(C(F)(F)F)c2)cc(-c2ccccc2)n1CCCN(C)CC1CCN(C)CC1 [Compound I-039]	–
18.5 µM (≈ 8.96 µg/mL)	0.196 µM	0.26 µM	–	–	–	Cc1c(C(=O)Nc2cccc(C(F)(F)F)c2)cc(-c2ccccc2)n1CCCN1CCNC(=O)C1 [Compound I-071]	–
> 50 µM	–	1.7 µM	–	–	0.78 µM	Cc1c(C(=O)Nc2cccc(C(F)(F)F)c2)cc(-c2ccncc2)n1CCCN1CCOCC1 [Compound I-074]	–
> 50 µM	–	9.7 µM	–	92.7%	4.7 µM	Cc1c(C(=O)Nc2cccc(C(F)(F)F)c2)cc(C2CCNCC2)n1CCCN1CCOCC1 [Compound I-076]	–
> 50 µM	–	4.7 µM	–	–	2 µM	CC(=O)N1CCC(c2cc(C(=O)Nc3cccc(C(F)(F)F)c3)c(C)n2CCCN2CCOCC2)CC1 [Compound I-077]	–
20.1 µM (≈ 11.2 µg/mL)	–	4.9 µM	–	–	2.1 µM	Cc1c(C(=O)Nc2cccc(C(F)(F)F)c2)cc(C2CCN(S(C)(=O)=O)CC2)n1CCCN1CCOCC1 [Compound I-078]	–
40.2 µM (≈ 16.9 µg/mL)	–	7.8 µM	–	–	3.2 µM	Cc1c(C(=O)Nc2cccc(C(F)(F)F)c2)cc(C#N)n1CCCN1CCOCC1 [Compound I-079]	–
24.3 µM (≈ 12.3 µg/mL)	1.8 µM	7.4 µM	–	–	–	Cc1c(NS(=O)(=O)c2cccc(C(F)(F)F)c2)cc(-c2ccccc2)n1CCCN1CCOCC1 [Compound I-080]	–
> 50 µM	1.44 µM	–	–	–	–	Cc1c(NC(=O)c2cccc(C(F)(F)F)c2)cc(-c2ccccc2)n1CCCN1CCOCC1 [Compound I-082]	13.5%
14.5 µM (≈ 6.65 µg/mL)	–	1.3 µM	–	–	0.59 µM	O=C(Nc1cccc(C(F)(F)F)c1)c1cc(-c2ccccc2)nn1CCCN1CCOCC1 [Compound I-085]	–
35.1 µM (≈ 16.5 µg/mL)	–	5.8 µM	–	–	2.8 µM	O=C(Nc1cccc(C(F)(F)F)c1)c1cnc(-c2ccccc2)c(CCCN2CCOCC2)c1 [Compound I-088]	–

Structure (SMILES)	solubility at 16 h (Solubility test)	Ki (human TRPV4 [1])	IC50 (human TRPV4 [2])	remaining rate (metabolism stability) [3, 5]	remaining rate (metabolism stability) [3, 6]	Ki (human TRPV4 [2])	hERG % inhibition [4]
Cc1c(C(=O)Nc2ccccc2)cc(-c2ccccc2)n1CCCN1CCOCC1 [Compound I-009]	> 50 µM	0.678 µM	1.5 µM	–	–	–	–
Cc1cc(C(=O)Nc2cccc(C(F)(F)F)c2)c(C)n1CCCN1CCOCC1 [Compound I-017]	> 50 µM	1.56 µM	–	–	–	–	–
Cc1c(C(=O)Nc2ccccc2C(F)(F)F)cc(-c2ccccc2)n1CCCN1CCOCC1 [Compound I-022]	> 50 µM	2.48 µM	2.4 µM	–	–	–	–
O=C(Nc1cccc(C(F)(F)F)c1)c1cc(-c2ccccc2)n(CCCN2CCOCC2)n1 [Compound I-086]	8.3 µM (≈ 3.81 µg/mL)	–	3.4 µM	–	–	1.6 µM	–

Source: patent publication US9340500B2, “Aromatic heterocyclic derivative having TRPV4-inhibiting activity” (SHIONOGI & CO., LTD., priority 2011, dated 2016)
